The text below walks through data of PubChem BioAssay AID1259411 (Chemical Carcinogenesis Research Information System (CCRIS), 2018).

For this data set, the system named is rodent carcinogenicity bioassays, tumor incidence. Kind of data set: CCRIS carcinogenicity studies. An outline of the steps:
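NCI-built, expert-reviewed records of carcinogenicity and related test outcomes (mutagenicity, tumor promotion/inhibition) compiled from published and report sources, historical span 1985-2011, not updated.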

Calls of active or inactive are those of the source. How the calls were made is not given here.

Regarding `CCC[CH2][Sn]([CH2]CCC)([CH2]CCC)[O][Sn]([CH2]CCC)([CH2]CCC)[CH2]CCC`, the carcinogen call is “active; positive” (Species: RAT, Strain/Sex: WISTAR/FEMALE, Route: ORAL, Dose: 0, 0.5, 5, 50 MG/KG DIET FOR 30 MO (STUDY DURATION: 30 MO), Dose: 0, 0.5, 5, 50 MG/KG DIET FOR 30 MO (STUDY DURATION: 30 MO), Tumor Site: Type of Lesion: ADRENAL GLAND: PHEOCHROMOCYTOMA, PITUITARY: TUMOR) and “active; positive” (Species: RAT, Strain/Sex: WISTAR/MALE, Route: ORAL, Dose: 0, 0.5, 5, 50 MG/KG DIET FOR 30 MO (STUDY DURATION: 30 MO), Dose: 0, 0.5, 5, 50 MG/KG DIET FOR 30 MO (STUDY DURATION: 30 MO), Tumor Site: Type of Lesion: ADRENAL GLAND: PHEOCHROMOCYTOMA, PITUITARY: TUMOR, PARATHYROID: ADENOMA, Tumor Site: Type of Lesion: ADRENAL GLAND: PHEOCHROMOCYTOMA, PITUITARY: TUMOR, PARATHYROID: ADENOMA).

For `Nc1ccc2c(c1)C(=O)c1ccccc1C2=O`, the carcinogen call is “active; positive” (Species: MOUSE, Strain/Sex: B6C3F1/FEMALE, Route: ORAL, Dose: 0, 0.5, 1.0% OF DIET, Dose: 0, 0.5, 1.0% OF DIET, Tumor Site: Type of Lesion: LYMPHATIC SYSTEM: MALIGNANT LYMPHOMA, LIVER: HEPATOCELLULAR CARCINOMA); “active; positive” (Species: MOUSE, Strain/Sex: B6C3F1/MALE, Route: ORAL, Dose: 0, 0.5, 1.0% OF DIET, Dose: 0, 0.5, 1.0% OF DIET, Tumor Site: Type of Lesion: LIVER: HEPATOCELLULAR CARCINOMA, ADENOMA); “active; positive” (Species: RAT, Strain/Sex: F344/MALE, Route: ORAL, Dose: 0, 0.35, 0.69% OF DIET, Dose: 0, 0.35, 0.69% OF DIET, Tumor Site: Type of Lesion: LIVER: HEPATOCELLULAR CARCINOMA, NEOPLASTIC NODULE).

For the compound `CC(=O)O[C@]1(C(C)=O)CC[C@H]2[C@@H]3C=C(Cl)C4=CC(=O)CC[C@]4(C)[C@H]3CC[C@@]21C`, the carcinogen call (Species: DOG, Route: ORAL, Tumor Site: Type of Lesion: MAMMARY GLAND) is “active; positive”.

Turning to `CC(CCl)OC(C)CCl` (configuration not stated), the carcinogen call is “active; positive” (Species: MOUSE, Strain/Sex: B6C3F1/FEMALE, Route: GAVAGE, Dose: 0, 100, 200 MG/KG IN CORN OIL 5/WK FOR 103 WK, Dose: 0, 100, 200 MG/KG IN CORN OIL 5/WK FOR 103 WK, Tumor Site: Type of Lesion: LUNG: ALVEOLAR/BRONCHIOLAR ADENOMA, CARCINOMA); “active; positive” (Species: MOUSE, Strain/Sex: B6C3F1/MALE, Route: GAVAGE, Dose: 0, 100, 200 MG/KG IN CORN OIL 5/WK FOR 103 WK, Dose: 0, 100, 200 MG/KG IN CORN OIL 5/WK FOR 103 WK, Tumor Site: Type of Lesion: LUNG: ALVEOLAR/BRONCHIOLAR ADENOMA, CARCINOMA, LIVER: HEPATOCELLULAR ADENOMA, CARCINOMA); “inactive; negative” (Species: RAT, Strain/Sex: F344/FEMALE, Route: GAVAGE, Dose: 0, 100, 200 MG/KG IN CORN OIL, Dose: 0, 100, 200 MG/KG IN CORN OIL); “inactive; negative” (Species: RAT, Strain/Sex: F344/MALE, Route: GAVAGE, Dose: 0, 100, 200 MG/KG IN CORN OIL, Dose: 0, 100, 200 MG/KG IN CORN OIL).

As to `CCO[Si](CCCOCC1CO1)(OCC)OCC` (configuration not stated), the carcinogen call (Species: MOUSE, Strain/Sex: C3H/MALE, Route: DERMAL, Dose: 0, 2 MG IN ACETONE 3/WK FOR DURATION OF STUDY (STUDY DURATION: LIFETIME)) is “inactive; negative”.

With `CC(CCC(=O)N(CC(=O)O)N=O)C1CCC2C3C(O)CC4C[C@H](O)CCC4(C)C3C[C@H](O)C12C` (some centres not stated), the carcinogen call (Species: RAT, Strain/Sex: F344/MALE, Route: GAVAGE, Dose: 0, 10 MG IN 50 µL DMSO 5 D/WK FOR 6 WK (STUDY DURATION: 108 WK), Tumor Site: Type of Lesion: LIVER: CARCINOMA) was “active; positive”.

For `O=C1OC(O)C(C(Cl)Cl)=C1Cl` (configuration not stated), the carcinogen call was “active; positive” (Species: RAT, Strain/Sex: WISTAR/FEMALE, Route: ORAL, Dose: 0, 0.6, 1.9, 6.6 MG/KG BW IN DRINKING WATER FOR 104 WK (STUDY DURATION: 104 WK), Dose: 0, 0.6, 1.9, 6.6 MG/KG BW IN DRINKING WATER FOR 104 WK (STUDY DURATION: 104 WK), Tumor Site: Type of Lesion: MAMMARY GLAND: ADENOCARCINOMA, FIBROADENOMA, HEMATOPOIETIC SYSTEM: LYMPHOMA OR LEUKEMIA, LIVER: CHOLANGIOMA, ADENOMA, AD, Tumor Site: Type of Lesion: MAMMARY GLAND: ADENOCARCINOMA, FIBROADENOMA, HEMATOPOIETIC SYSTEM: LYMPHOMA OR LEUKEMIA, LIVER: CHOLANGIOMA, ADENOMA, AD) and “active; positive” (Species: RAT, Strain/Sex: WISTAR/MALE, Route: ORAL, Dose: 0, 0.4, 1.3, 5 MG/KG BW IN DRINKING WATER FOR 104 WK (STUDY DURATION: 104 WK), Dose: 0, 0.4, 1.3, 5 MG/KG BW IN DRINKING WATER FOR 104 WK (STUDY DURATION: 104 WK), Tumor Site: Type of Lesion: SKIN (SUBCUTANEOUS TISSUE): BASAL CELL TUMOR, LUNG: ALVEOLAR/BRONCHIOLAR ADENOMA, LIVER: CHOLANGIOMA,ADENOMA, PANCREAS (, Tumor Site: Type of Lesion: SKIN (SUBCUTANEOUS TISSUE): BASAL CELL TUMOR, LUNG: ALVEOLAR/BRONCHIOLAR ADENOMA, LIVER: CHOLANGIOMA,ADENOMA, PANCREAS ().

Turning to `CCCCN(COC(C)=O)N=O`, the carcinogen call was “active; positive” (Species: RAT, Strain/Sex: F344/FEMALE, Route: SUBCUTANEOUS, Dose: 6.6 MG/KG 1/WK FOR 10 WK, Tumor Site: Type of Lesion: INJECTION SITE: MALIGNANT FIBROUS HISTIOCYTOMA) and “active; positive” (Species: RAT, Strain/Sex: F344/MALE, Route: SUBCUTANEOUS, Dose: 6.6 MG/KG 1/WK FOR 10 WK, Tumor Site: Type of Lesion: INJECTION SITE: MALIGNANT FIBROUS HISTIOCYTOMA, LUNG: ADENOMA OR ADENOCARCINOMA OR SQUAMOUS CELL CARCINOMA).

For the compound `Nc1cccc2ccccc12`, the carcinogen call was “inactive; negative” (Species: DOG, Strain/Sex: BEAGLE/FEMALE, Route: ORAL, Dose: 22.0 MG/KG 5/WK) and “inactive; negative” (Species: DOG, Strain/Sex: BEAGLE/MALE, Route: ORAL, Dose: 18.4 MG/KG 5/WK).

On to `CC(=O)OC1CC(C)OC(C)O1` (configuration not stated), for which the carcinogen call by setting is: (Species: MOUSE, Strain/Sex: B6C3F1/FEMALE, Route: GAVAGE, Dose: 0, 250, 500 MG/KG IN CORN OIL 5 D/WK FOR 103 WK (STUDY DURATION: 105 WK), Dose: 0, 250, 500 MG/KG IN CORN OIL 5 D/WK FOR 103 WK (STUDY DURATION: 105 WK)) “inactive; negative”; (Species: MOUSE, Strain/Sex: B6C3F1/MALE, Route: GAVAGE, Dose: 0, 250, 500 MG/KG IN CORN OIL 5 D/WK FOR 103 WK (STUDY DURATION: 105 WK), Dose: 0, 250, 500 MG/KG IN CORN OIL 5 D/WK FOR 103 WK (STUDY DURATION: 105 WK), Tumor Site: Type of Lesion: FORESTOMACH: SQUAMOUS PAPILLOMA OR SQUAMOUS CELL CARCINOMA) “equivocal”; (Species: RAT, Route: ORAL, Tumor Site: Type of Lesion: LIVER) “active; positive”; (Species: RAT, Strain/Sex: F344/FEMALE, Route: GAVAGE, Dose: 0, 125, 250 MG/KG IN CORN OIL 5 D/WK FOR 103 WK (STUDY DURATION: 105 WK), Dose: 0, 125, 250 MG/KG IN CORN OIL 5 D/WK FOR 103 WK (STUDY DURATION: 105 WK)) “inactive; negative”; (Species: RAT, Strain/Sex: F344/MALE, Route: GAVAGE, Dose: 0, 62.5, 125 MG/KG IN CORN OIL 5 D/WK FOR 103 WK (STUDY DURATION: 105 WK), Dose: 0, 62.5, 125 MG/KG IN CORN OIL 5 D/WK FOR 103 WK (STUDY DURATION: 105 WK)) “inactive; negative”.

With `CC1CC(=O)O1` (configuration not stated), the carcinogen call (Species: MOUSE, Route: DERMAL, Tumor Site: Type of Lesion: INTEGUMENTARY SYSTEM (SKIN)) was “active; positive”; the carcinogen call (Species: MOUSE, Route: SUBCUTANEOUS, Tumor Site: Type of Lesion: INJECTION SITE) is “active; positive”; the carcinogen call (Species: RAT, Route: GAVAGE, Tumor Site: Type of Lesion: FORESTOMACH) was “active; positive”; the carcinogen call (Species: RAT, Route: SUBCUTANEOUS, Tumor Site: Type of Lesion: INJECTION SITE) was “active; positive”.
